Laboratory results from patent US11208427B2, “Dicaffeoyl spermidine derivative glycosides and use thereof” (Jinan University, priority 2016, dated 2021).
Marks after values point to notes of the source that are not given here.

How the values were obtained:
[1] = tested on: respiratory syncytial virus (RSV); assay: microbe, parasite or virus in culture; format: cell-based; settings: for IC50: RSV in HEp-2 cells, CPE, 60-72 hours; for SI = CC50/IC50: RSV, HEp-2 cells
Procedure: (§1) 1) HEp-2 cells were seeded in 96-well cell culture plates at 100 μL/well and the cell density was 2.5×10^5/mL. The cells were cultured in a 37° C., 5% CO2 incubator and grown into a cell single layer over about 20 h.
2) The culture fluid in the 96-well plate was discarded and the sample to be tested was half diluted by using maintenance solution with the starting concentration of the monomeric compound being 50 μM, and 50 μL of sample and 50 μL of 100×TCID50 of virus dilution being added into each well. The positive control drug Ribavirin group, virus control group and cell control group were set and placed in a 37° C., 5% CO2 incubator for culture.
3) The culture was continued for 60-72 hours, and the viral lesions in each group were recorded when the lesions were completely developed in the virus control group.
4) The virus-induced cytopathic effect was recorded as follows: no cellular lesion was recorded as “−”, 0 to 25% cellular lesions was recorded as “+”, 25% to 50% cellular lesion was recorded as “++”, 50%˜75% of cellular lesion was recorded as “+++”, and 75% to 100% of cellular lesion was recorded as “++++”. The sample concentration corresponding to the “++” lesion level is the half inhibitory concentration IC50 of the sample against the virus.
5) Three replicates were performed independently for each experiment.

[2] = tested on: Senile dementia fruit fly (Aβ42; P35*H29.3); assay: learning and memory (olfactory short-term memory, T-Maze) of Senile dementia fruit fly; format: in vivo; settings: performance index, 100 μM in feed, n = 6
Description: W^1118 (isoCJ1), as a background fruit fly of control group in the experiment, was abbreviated as “2U”. The fruit flies that successfully introduced with the pathogenic Aβ42 protein were (UAS-Aβ42; abbreviated as “H29.3”). This strain of fruit flies was hybridized with the fruit fly expressing the Gal4 promoter in whole brain, and the fruit fly strain carrying elav-GAL4^c155 (P35) and Aβ42 was obtained.
Three groups of drug-free control of healthy fruit fly, drug-free control of disease fruit fly, and dose disease fruit fly were set in the experiment.
All parents of tested fruit flies were housed and propagated at a constant temperature of 24° C. and a humidity of 42% RH (Relative humidity). On the first day after the emergence of the fruit flies, the fruit flies of control group and disease group, as well as the fruit flies to be administered were anesthetized with carbon dioxide, and then the fruit flies of the correct characters were selected into the glass tube containing food. During the dosing period, all tested fruit flies were kept in an incubator with a constant temperature of 28° C. and a constant humidity of 42% to ensure the drug taking efficiency of the fruit flies. Each day the fruit flies were administered for 4 hours, and the drug was administered from the second day after the fruit flies were selected until the 8th day.
The drugs administered were prepared on the second day after the fruit fly selection, and were administered to the fruit flies on the day of preparation. The drugs were dissolved by 100% DMSO to a concentration of 10 mM. When preparing the working solution, the 10 mM stock solution was diluted to 100 μM with 4% sucrose. In addition, the fruit flies of control group were fed sucrose water containing 1% DMSO. For each Performance Index, two tubes of fruit fly groups are required, each tube containing about 100 fruit flies.
Experiments were conducted in a light proof behavior room with constant temperature of 25° C., constant humidity of 70%. The method can be found in references^[1-3].
1) During the training stage, about 100 flies were loaded into a training tube provided with a copper mesh cross electrode. Two kinds of odors of octanol (OCT) and methylcyclohexanol (MCH) were successively introduced for each 60 s with an intervals for 45 s of fresh air. 60 V pulsed electrical shock stimulation (US, pulse duration 1.5 s, interval 3.5 s) was applied to the fruit flies while introducing the 1st odor. No electrical shock was applied when the second odor (CS−) was introduced. Thereby one training cycle was completed.
2) In the transient memory (learning) ability test, the fruit flies that completed one training cycle were immediately transferred to the selection point of T-Maze, while CS+ and CS− were introduced from the opposite two directions. After two minutes of selection, the fruit flies on both sides were collected separately and counted after anesthesia or sacrifice. The calculation formula for the performance index (PI) is as follows: PI=[(CS−)−(CS+)]/[(CS−)+(CS+)]×100.
Using OCT and MCH as CS+ for training and testing respectively, the average of the two PIs obtained was used as PI for one experiment. […] When performing the activity test, the short-term memory deficit tests for the olfactory sensation of the non-administered healthy flies with the same genetic background (2U*H29.3), non-administered Senile dementia disease flies (P35*H29.3), and test drug administered Senile dementia disease flies were also conducted, and their total learning and memory performance indexes (PIs) was calculated respectively. The learning and memory performance index of the test drug administered Senile dementia disease flies was compared with the performance index of the non-administered healthy flies with the same genetic background (2U*H29.3), and the performance index of the non-administered Senile dementia disease flies (P35*H29.3), to evaluate effect of the test drugs against Senile dementia. […]

HEp-2 cells = assay: Cytotoxicity assay (MTT); format: cell-based; settings: 72 hours
Procedure: as §1
(§2) 2) The culture fluid in the 96-well plate was discarded and the sample to be tested was half diluted into different concentrations by using maintenance solution. For each dilution, 3 replicate wells were set at 100 μL/well, and cell control wells were also set at the same time. Then they were placed in the incubator to continue the culture.
(§3) 3) The cytopathic effect caused by sample toxicity was observed every day. After 72 hours, the culture solution was discarded, and according to the MTT method, 30 μL of 5 mg/mL MTT solution was added into each well. They were placed in the incubator to continue the incubation for 4 h in dark.

[3] = oxygen radical absorbance capacity (ORAC) experiment; settings: relative to Trolox; AAPH, fluorescein
Procedure: The antioxidant activity of the compounds was evaluated by using the oxygen radical absorbance capacity (ORAC) experiment. The detailed experimental procedure is as follows. 0.248 g of AAPH (2,2′-azobisisobutylamidine dihydrochloride) was added to a 50 mL phosphate buffer system to formulate a 18.3 mM AAPH stock solution. 20 μL of phosphate buffer, 20 μL solution of sample to be tested or standard substance Trolox (concentration of 6.25 μM) and 20 μL of fluorescent substance of disodium fluorescein (FL, concentration of 630 nM) were added to the wells of a 96-well plate in order. Then, 140 μL of AAPH (concentration of 18.3 mM) was quickly added to the wells of the 96-well plate, which was immediately placed in a GENios […] microplate reader manufactured by Tecan, Switzerland, the excitation wavelength was set as 485 nm and the emission wavelength was set as 527 nm. The fluorescence intensity was measured every 2 minutes and recorded for a total of 100 min.
The antioxidant capacity of the active substance is calculated as follows: Relative ORAC value=(AUCsample−AUCblank)/(AUCtrolox−AUCblank). Wherein, AUCsample refers to the integral area under the fluorescence decay curve of the test sample, AUCtrolox refers to the integral area under the fluorescence decay curve of the standard substance Trolox, and AUCblank refers to the integral area under the fluorescence decay curve when the test sample or the standard substance Trolox is not added.

Cytotoxicity assay (MTT) = format: cell-based; settings: human, HEp-2 cells
Procedure: as §1, §2, §3

Row | Structure (SMILES) | IC50 [1] [µM] | SI = CC50/IC50 [1] | PI (100 μM) ([2]; experiment b) | CC50 (HEp-2 cells) [µM] | MNCC (HEp-2 cells) [µM] | ORAC value [3] [μmol TE/μmol] | PI (100 μM) ([2]; experiment a) | PI (100 μM) ([2]; experiment c) | IC50 ([1]; human respiratory syncytial virus) [µM] | CC50 at 72 h (Cytotoxicity assay (MTT)) [µM]
1 | O=C(CCc1ccc(O[C@@H]2O[C@H](CO)[C@@H](O)[C@H](O)[C@H]2O)c(O)c1)NCCCCNCCCNC(=O)CCc1ccc(O[C@@H]2O[C@H](CO)[C@@H](O)[C@H](O)[C@H]2O)c(O)c1 [formula XIII] | 25 | >4 | 42.5 ± 3.0*** | > 100 | >100 | 2.06 ± 0.04 | – | – | – | –
2 | CC12CC3CC(C)(C1)CC(N)(C3)C2 [Memantine, reference compound] | – | – | 42.7 ± 0.9*** | – | – | – | 43.1 ± 0.9*** | 44.2 ± 2.1*** | – | –
3 | O=C(/C=C\c1ccc(O)c(O[C@@H]2O[C@H](CO)[C@@H](O)[C@H](O)[C@H]2O)c1)NCCCNCCCCNC(=O)CCc1ccc(O[C@@H]2O[C@H](CO)[C@@H](O)[C@H](O)[C@H]2O)c(O)c1 [formula VIII] | – | >2 | 32.2 ± 2.3* | > 100 | >100 | 3.07 ± 0.02 | – | – | – | –
4 | O=C(CCc1ccc(O)c(O[C@@H]2O[C@H](CO)[C@@H](O)[C@H](O)[C@H]2O)c1)NCCCCNCCCNC(=O)CCc1ccc(O[C@@H]2O[C@H](CO)[C@@H](O)[C@H](O)[C@H]2O)c(O)c1 [formula XIV] | – | >2 | – | > 100 | >100 | 1.81 ± 0.05 | – | 44.6 ± 1.2*** | – | –
5 | O=C(/C=C/c1ccc(O)c(O[C@@H]2O[C@H](CO)[C@@H](O)[C@H](O)[C@H]2O)c1)NCCCNCCCCNC(=O)CCc1ccc(O)c(O)c1 [formula III] | 25 | >4 | – | > 100 | >100 | 1.87 ± 0.04 | 42.9 ± 1.6*** | – | – | –
6 | O=C(/C=C/c1ccc(O)c(O)c1)NCCCNCCCCNC(=O)CCc1ccc(O)c(O[C@@H]2O[C@H](CO)[C@@H](O)[C@H](O)[C@H]2O)c1 [formula IV] | 25 | >4 | – | > 100 | >100 | 1.73 ± 0.04 | 42.2 ± 2.1*** | – | – | –
7 | O=C(CCc1ccc(O)c(O[C@@H]2O[C@H](CO)[C@@H](O)[C@H](O)[C@H]2O)c1)NCCCCNCCCNC(=O)CCc1ccc(O)c(O[C@@H]2O[C@H](CO)[C@@H](O)[C@H](O)[C@H]2O)c1 [formula XII] | – | >2 | 33.5 ± 3.0** | > 100 | >100 | 1.23 ± 0.04 | – | – | – | –
8 | O=C(CCc1ccc(O)c(O)c1)NCCCCNCCCNC(=O)CCc1ccc(O)c(O[C@@H]2O[C@H](CO)[C@@H](O)[C@H](O)[C@H]2O)c1 [formula XI] | 25 | >4 | 37.2 ± 2.9*** | > 100 | >100 | 2.07 ± 0.03 | – | – | – | –
9 | O=C(/C=C/c1ccc(O[C@@H]2O[C@H](CO)[C@@H](O)[C@H](O)[C@H]2O)c(O)c1)NCCCNCCCCNC(=O)CCc1ccc(O)c(O)c1 [formula V] | 25 | >4 | – | > 100 | >100 | 2.96 ± 0.03 | 35.0 ± 1.3* | – | – | –
10 | O=C(/C=C/c1ccc(O)c(O)c1)NCCCNCCCCNC(=O)CCc1ccc(O[C@@H]2O[C@H](CO)[C@@H](O)[C@H](O)[C@H]2O)c(O)c1 [formula II] | 25 | >4 | – | > 100 | >100 | 2.04 ± 0.04 | 35.5 ± 3.8* | – | – | –
11 | O=C(/C=C/c1ccc(O)c(O[C@@H]2O[C@H](CO)[C@@H](O)[C@H](O)[C@H]2O)c1)NCCCNCCCCNC(=O)CCc1ccc(O)c(O[C@@H]2O[C@H](CO)[C@@H](O)[C@H](O)[C@H]2O)c1 [formula VII] | – | >2 | 44.6 ± 2.5*** | > 100 | >100 | 1.02 ± 0.02 | – | – | – | –
12 | O=C(O[C@@H]1Cc2c(O)cc(O)cc2O[C@@H]1c1cc(O)c(O)c(O)c1)c1cc(O)c(O)c(O)c1 [EGCG, epigallocatechin gallate, reference compound] | – | – | – | – | – | 1.48 ± 0.02 | – | – | – | –
13 | NC(=O)c1ncn([C@@H]2O[C@H](CO)[C@@H](O)[C@H]2O)n1 [Ribavirin, reference compound] | – | 15 | – | – | 15.32 ± 4.31 | – | – | – | 2.5 | 37.9 ± 3.82
